One assay has as its system 229E. Kind of assay: 229E MRC5 CPE assay (cytopathic experiment). The format is cell-based, coronavirus 229E (HCoV-229E). (In general: Damage to the host cells serves as the signal in cytopathic effect assays.)
A further assay relates to OC43. Briefly: OC43 Huh7 CPE assay (cytopathic experiment). The format is cell-based, coronavirus OC43 (HCoV-OC43). To be noted: for EC50: read-out: OC43 Huh7 CPE assay (μM) EC50; for EC90: read-out: OC43 Huh7 CPE assay (μM) EC90. A digest of the protocol: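 Cells seeded overnight, then two-fold diluted compound added with virus; viability read by CellTiter-Glo after 3 days (229E, MRC5 cells) or 7 days (OC43, Huh7 cells). EC50/EC90 from % inhibition of virus-induced CPE; CC50 from parallel uninfected cytotoxicity runs, by nonlinear fitting.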

Setting [1] is: Human coronavirus 229E, MRC5, 72 h, read-out: 229E MRC5 CPE assay (μM) EC50.
Where [2] appears, read: Human coronavirus 229E, MRC5, 72 h, read-out: 229E MRC5 CPE assay (μM) EC90.
[3] abbreviates: Betacoronavirus 1, OC43, Huh-7, 168 h.
[4] abbreviates: Human coronavirus 229E, MRC5, 72 h; read-out: 229E MRC5 CPE assay (μM) EC50.
The mark [5] stands for this setting: Human coronavirus 229E, MRC5, 72 h; read-out: 229E MRC5 CPE assay (μM) EC90.
Setting [6] is: Betacoronavirus 1, Huh-7, 168 h, Huh7 cells, OC43 virus, 7 days, Cell Titer Glo.

Read-outs that look alike come from different tables or passages of the source.

Data on 18 molecules can be found in patent publication US20240252527A9, “NUCLEOSIDE DRUGS FOR THE TREATMENT OR PREVENTION OF CORONAVIRUS INFECTION AND THEIR USES” (Miracure Biotechnology Limited, priority 2022, published 2024).

What is called EC50 is the midpoint of the concentration-response curve. For orientation: EC90 means the concentration at which the effect reaches the 90% level. On to `CC(C)OC(=O)C(C)(C)N[P@@](=O)(OCOC(=O)CCCc1ccccc1)OC[C@H]1O[C@@](C#N)(c2ccc3c(N)ncnn23)[C@H](O)[C@@H]1O` [Compound 269], for which the EC50 with 229E (setting [1]) and with OC43 (setting [3]) was greater than 0.5 µM throughout. The EC90 in the assay on 229E (setting [2]) and with OC43 (setting [3]) was greater than 0.5 µM each time.
`[2H]c1cc([C@]2(C#N)O[C@@H]3CO[P@](=O)(OCCSC(=O)C(C)(C)C)O[C@H]3[C@H]2O)n2ncnc(N)c12` [Compound 238]: the EC50 in the assay with 229E (setting [1]) and in the assay on OC43 (setting [3]) was less than 0.1 µM in each case. Further, the concentration for an effect of 90% (EC90) in the assay with 229E (setting [2]) and with OC43 (setting [3]) was less than 0.1 µM throughout.
As to `CCCC(CCC)C(=O)OCO[P@](=O)(N[C@@H](C)C(=O)OCC(CC)CC)OC[C@H]1O[C@@](C#N)(c2ccc3c(N)ncnn23)[C@H](O)[C@@H]1O` [Compound 070], the EC50 in the assay on 229E (setting [1]) and with OC43 (setting [3]) was 0.1 to 0.5 µM throughout. The EC90 with 229E (setting [2]) was 0.1 to 0.5 µM; in the assay with OC43 (setting [3]), greater than 0.5 µM.
Consider `N#C[C@@]1(c2ccc3c(N)ncnn23)O[C@@H]2CO[P@](=O)(OCOC(=O)C3CCCC3)O[C@H]2[C@H]1O` [Compound 261], for which the EC50 with 229E (setting [1]) was 0.1 to 0.5 µM; in the assay on OC43 (setting [3]), greater than 0.5 µM. The EC90 in the assay with 229E (setting [2]) and in the assay with OC43 (setting [3]) was greater than 0.5 µM throughout.
For `N#C[C@@]1(c2ccc3c(N)ncnn23)OC2CO[P@@](=O)(OCOC(=O)c3cccnc3)O[C@H]2[C@H]1O` (stereo partly drawn) [Compound 180], the EC50 with 229E (setting [1]) and with OC43 (setting [3]) was greater than 0.5 µM in each case. Moreover, the EC90 with 229E (setting [2]) and in the assay with OC43 (setting [3]) was greater than 0.5 µM throughout.
On to `CC(C)(C)C(=O)O[C@@H]1[C@@H]2O[P@](=O)(O)OC[C@H]2O[C@@]1(C#N)c1ccc2c(N)ncnn12` [Compound 200], for which the EC50 with 229E (setting [1]) and in the assay on OC43 (setting [3]) was greater than 0.5 µM in each case. Further, the EC90 in the assay on 229E (setting [2]) and with OC43 (setting [3]) was greater than 0.5 µM in each case.
On to `CC(C)(C)C(=O)SCCO[P@@]1(=O)OC[C@H]2O[C@@](C#N)(c3ccc4c(N)ncnn34)[C@H](O)[C@@H]2O1` [Compound 236], for which the EC50 with 229E (setting [1]) and in the assay on OC43 (setting [3]) was less than 0.1 µM each time. The 90% effect concentration (EC90) with 229E (setting [2]) and with OC43 (setting [3]) was less than 0.1 µM each time.
Take `CCCC(CCC)C(=O)OCO[P@](=O)(N[C@@H](Cc1ccccc1)C(=O)OCC)OC[C@H]1O[C@@](C#N)(c2ccc3c(N)ncnn23)[C@H](O)[C@@H]1O` [Compound 137]: the EC50 in the assay on 229E (setting [1]) and in the assay on OC43 (setting [3]) was less than 0.1 µM each time. For the same molecule, the EC90 in the assay with 229E (setting [2]) is 0.1 to 0.5 µM; with OC43 (setting [3]), less than 0.1 µM.
For the molecule `N#C[C@@]1(c2ccc3c(N)ncnn23)OC2CO[P@](=O)(OCOC(=O)c3cccnc3)O[C@H]2[C@H]1O` (stereo partly drawn) [Compound 179], the EC50 with 229E (setting [1]) and with OC43 (setting [3]) was greater than 0.5 µM each time. In addition, the EC90 with 229E (setting [2]) and with OC43 (setting [3]) was greater than 0.5 µM in each case.
On to `CCCC(CCC)C(=O)OCO[P@@]1(=S)OC[C@H]2O[C@@](C#N)(c3ccc4c(N)ncnn34)[C@H](O)[C@@H]2O1` [Compound 144], for which the EC50 with 229E (setting [4]) and in the assay on OC43 (setting [3]) was greater than 0.5 µM each time. Moreover, the EC90 with 229E (setting [5]) and in the assay on OC43 (setting [3]) was greater than 0.5 µM in each case.
Regarding `CCCC(CCC)C(=O)OCO[P@@]1(=O)OC[C@H]2O[C@@](C#N)(c3ccc4c(N)ncnn34)[C@H](O)[C@@H]2O1` [Compound 129], the EC50 in the assay with 229E (setting [1]) and with OC43 (setting [3]) was less than 0.1 µM throughout. In addition, the concentration for an effect of 90% (EC90) with 229E (setting [2]) is less than 0.1 µM; with OC43 (setting [3]) it was greater than 0.5 µM.
As to `CCCC(CCC)C(=O)OCO[P@]1(=O)OC[C@H]2O[C@@](C#N)(c3ccc4c(N)ncnn34)[C@H](O)[C@@H]2O1` [Compound 130], the EC50 in the assay on 229E (setting [1]) and with OC43 (setting [3]) was less than 0.1 µM in each case. For the same molecule, the EC90 in the assay with 229E (setting [2]) and in the assay with OC43 (setting [3]) was 0.1 to 0.5 µM throughout.
In the case of `CCC(CC)COC(=O)[C@H](C)N[P@@](=O)(OCCN(CC)CCCC(C)Nc1ccnc2cc(Cl)ccc12)OC[C@H]1O[C@@](C#N)(c2ccc3c(N)ncnn23)[C@H](O)[C@@H]1O` (stereo partly drawn) [Compound 068], the EC50 with 229E (setting [1]) and with OC43 (setting [3]) was greater than 0.5 µM throughout. Besides, the EC90 in the assay on 229E (setting [2]) and in the assay on OC43 (setting [3]) was greater than 0.5 µM throughout.
For `CC(C)OC(=O)C(C)(C)N[P@](=O)(OCOC(=O)C1CCCC1)OC[C@H]1O[C@@](C#N)(c2ccc3c(N)ncnn23)[C@H](O)[C@@H]1O` [Compound 268], the concentration for a half-maximal effect (EC50) in the assay on 229E (setting [1]) and in the assay on OC43 (setting [3]) was greater than 0.5 µM throughout. Besides, the EC90 with 229E (setting [2]) and with OC43 (setting [3]) was greater than 0.5 µM each time.
Take `CCCC(CCC)C(=O)OCO[P@](=O)(N[C@@H](C)C(=O)OC(C)C)OC[C@H]1O[C@@](C#N)(c2ccc3c(N)ncnn23)[C@H](O)[C@@H]1O` [Compound 074]: the half-maximal effective concentration (EC50) in the assay with 229E (setting [1]) and in the assay on OC43 (setting [3]) was less than 0.1 µM in each case. Also, the results for the 90% effect concentration (EC90) with 229E (setting [2]) and in the assay with OC43 (setting [3]) were less than 0.1 µM and 0.1 to 0.5 µM, respectively.
As for `CCC(CC)COC(=O)[C@H](C)N[P@](=O)(OC[C@H]1O[C@@](C#N)(c2ccc3c(N)ncnn23)[C@H](O)[C@@H]1O)Oc1ccccc1` [Remdesivir, reference compound], the 50% effective concentration (EC50) in the assay with 229E (setting [4]) and with OC43 (setting [6]) was less than 0.1 µM throughout. Further, the results for the EC90 with 229E (setting [5]) and in the assay with OC43 (setting [6]) were 0.1 to 0.5 µM and less than 0.1 µM, respectively.
With `CC(C)(C)C(=O)OCO[P@@](=O)(OC[C@H]1O[C@@](C#N)(c2ccc3c(N)ncnn23)[C@H](O)[C@@H]1O)Oc1ccccc1` [Compound 214], the EC50 in the assay with 229E (setting [4]) and in the assay with OC43 (setting [3]) was greater than 0.5 µM throughout. The EC90 in the assay with 229E (setting [5]) and in the assay on OC43 (setting [3]) was greater than 0.5 µM each time.
For `CCCC(CCC)C(=O)OCO[P@@](=O)(N[C@@H](C)C(=O)OC)OC[C@H]1O[C@@](C#N)(c2ccc3c(N)ncnn23)[C@H](O)[C@@H]1O` [Compound 096], the EC50 in the assay on 229E (setting [1]) is less than 0.1 µM; with OC43 (setting [3]) it was 0.1 to 0.5 µM. The EC90 with 229E (setting [2]) is less than 0.1 µM; in the assay on OC43 (setting [3]) it was 0.1 to 0.5 µM.
